Oligonucleotides are given in HELM: sugar(base)linkage, 5' to 3'; d 2'-deoxyribose, r ribose, m 2'-O-methylribose, p phosphate. ss, as = sense and antisense strand

The target in this series is TMEM63B. In words: reporter assay of Huesken 2005. Conditions: siRNA.
Note: test concentration or dose not given here.

“RNA1{r(C)p.r(U)p.r(C)p.r(C)p.r(U)p.r(C)p.r(U)p.r(U)p.r(C)p.r(U)p.r(U)p.r(C)p.r(C)p.r(U)p.r(C)p.r(A)p.r(C)p.r(C)p.r(A)p.d(T)p.d(T)}|RNA2{r(U)p.r(G)p.r(G)p.r(U)p.r(G)p.r(A)p.r(G)p.r(G)p.r(A)p.r(A)p.r(G)p.r(A)p.r(A)p.r(G)p.r(A)p.r(G)p.r(G)p.r(A)p.r(G)p.d(G)p.d(A)}$$$RNA1{StrandType:ss}|RNA2{StrandType:as}$” came in with a normalised inhibition (eCFP-eYFP dual reporter) of 68%.

“RNA1{r(C)p.r(C)p.r(G)p.r(U)p.r(G)p.r(C)p.r(A)p.r(C)p.r(U)p.r(A)p.r(C)p.r(C)p.r(U)p.r(G)p.r(U)p.r(C)p.r(C)p.r(U)p.r(U)p.d(T)p.d(T)}|RNA2{r(A)p.r(A)p.r(G)p.r(G)p.r(A)p.r(C)p.r(A)p.r(G)p.r(G)p.r(U)p.r(A)p.r(G)p.r(U)p.r(G)p.r(C)p.r(A)p.r(C)p.r(G)p.r(G)p.d(C)p.d(A)}$$$RNA1{StrandType:ss}|RNA2{StrandType:as}$”: the normalised inhibition (eCFP-eYFP dual reporter) is 86.8%.

On to “RNA1{r(U)p.r(C)p.r(C)p.r(U)p.r(A)p.r(G)p.r(C)p.r(U)p.r(C)p.r(C)p.r(C)p.r(A)p.r(C)p.r(G)p.r(U)p.r(C)p.r(U)p.r(A)p.r(U)p.d(T)p.d(T)}|RNA2{r(A)p.r(U)p.r(A)p.r(G)p.r(A)p.r(C)p.r(G)p.r(U)p.r(G)p.r(G)p.r(G)p.r(A)p.r(G)p.r(C)p.r(U)p.r(A)p.r(G)p.r(G)p.r(A)p.d(A)p.d(C)}$$$RNA1{StrandType:ss}|RNA2{StrandType:as}$”, for which the normalised inhibition (eCFP-eYFP dual reporter) is 79.7%.

Substance “RNA1{r(A)p.r(C)p.r(A)p.r(G)p.r(C)p.r(C)p.r(A)p.r(U)p.r(G)p.r(A)p.r(C)p.r(C)p.r(G)p.r(G)p.r(U)p.r(A)p.r(U)p.r(G)p.r(A)p.d(T)p.d(T)}|RNA2{r(U)p.r(C)p.r(A)p.r(U)p.r(A)p.r(C)p.r(C)p.r(G)p.r(G)p.r(U)p.r(C)p.r(A)p.r(U)p.r(G)p.r(G)p.r(C)p.r(U)p.r(G)p.r(U)p.d(C)p.d(C)}$$$RNA1{StrandType:ss}|RNA2{StrandType:as}$” came in with a normalised inhibition (eCFP-eYFP dual reporter) of 56.4%.

As for “RNA1{r(A)p.r(C)p.r(C)p.r(C)p.r(U)p.r(G)p.r(C)p.r(U)p.r(G)p.r(C)p.r(U)p.r(G)p.r(U)p.r(G)p.r(G)p.r(U)p.r(G)p.r(C)p.r(U)p.d(T)p.d(T)}|RNA2{r(A)p.r(G)p.r(C)p.r(A)p.r(C)p.r(C)p.r(A)p.r(C)p.r(A)p.r(G)p.r(C)p.r(A)p.r(G)p.r(C)p.r(A)p.r(G)p.r(G)p.r(G)p.r(U)p.d(G)p.d(G)}$$$RNA1{StrandType:ss}|RNA2{StrandType:as}$”, the normalised inhibition (eCFP-eYFP dual reporter) worked out at 58.5%.

Substance “RNA1{r(G)p.r(A)p.r(G)p.r(A)p.r(G)p.r(G)p.r(C)p.r(G)p.r(C)p.r(A)p.r(A)p.r(C)p.r(G)p.r(U)p.r(G)p.r(A)p.r(A)p.r(G)p.r(C)p.d(T)p.d(T)}|RNA2{r(G)p.r(C)p.r(U)p.r(U)p.r(C)p.r(A)p.r(C)p.r(G)p.r(U)p.r(U)p.r(G)p.r(C)p.r(G)p.r(C)p.r(C)p.r(U)p.r(C)p.r(U)p.r(C)p.d(G)p.d(G)}$$$RNA1{StrandType:ss}|RNA2{StrandType:as}$” came in with a normalised inhibition (eCFP-eYFP dual reporter) of 56.8%.

In turn, “RNA1{r(A)p.r(G)p.r(C)p.r(A)p.r(G)p.r(G)p.r(U)p.r(G)p.r(G)p.r(A)p.r(G)p.r(G)p.r(C)p.r(C)p.r(A)p.r(U)p.r(U)p.r(G)p.r(A)p.d(T)p.d(T)}|RNA2{r(U)p.r(C)p.r(A)p.r(A)p.r(U)p.r(G)p.r(G)p.r(C)p.r(C)p.r(U)p.r(C)p.r(C)p.r(A)p.r(C)p.r(C)p.r(U)p.r(G)p.r(C)p.r(U)p.d(C)p.d(A)}$$$RNA1{StrandType:ss}|RNA2{StrandType:as}$” returned a normalised inhibition (eCFP-eYFP dual reporter) of 77.2%.

The substance “RNA1{r(U)p.r(A)p.r(A)p.r(A)p.r(G)p.r(G)p.r(A)p.r(U)p.r(G)p.r(A)p.r(U)p.r(G)p.r(A)p.r(G)p.r(A)p.r(U)p.r(C)p.r(C)p.r(G)p.d(T)p.d(T)}|RNA2{r(C)p.r(G)p.r(G)p.r(A)p.r(U)p.r(C)p.r(U)p.r(C)p.r(A)p.r(U)p.r(C)p.r(A)p.r(U)p.r(C)p.r(C)p.r(U)p.r(U)p.r(U)p.r(A)p.d(T)p.d(C)}$$$RNA1{StrandType:ss}|RNA2{StrandType:as}$” came in with a normalised inhibition (eCFP-eYFP dual reporter) of 24.7%.

“RNA1{r(C)p.r(G)p.r(C)p.r(C)p.r(C)p.r(U)p.r(C)p.r(A)p.r(C)p.r(G)p.r(G)p.r(A)p.r(C)p.r(A)p.r(C)p.r(A)p.r(G)p.r(A)p.r(C)p.d(T)p.d(T)}|RNA2{r(G)p.r(U)p.r(C)p.r(U)p.r(G)p.r(U)p.r(G)p.r(U)p.r(C)p.r(C)p.r(G)p.r(U)p.r(G)p.r(A)p.r(G)p.r(G)p.r(G)p.r(C)p.r(G)p.d(T)p.d(C)}$$$RNA1{StrandType:ss}|RNA2{StrandType:as}$” returned a normalised inhibition (eCFP-eYFP dual reporter) of 59.1%.

“RNA1{r(U)p.r(C)p.r(C)p.r(G)p.r(A)p.r(G)p.r(G)p.r(C)p.r(U)p.r(U)p.r(C)p.r(A)p.r(U)p.r(C)p.r(U)p.r(G)p.r(G)p.r(U)p.r(G)p.d(T)p.d(T)}|RNA2{r(C)p.r(A)p.r(C)p.r(C)p.r(A)p.r(G)p.r(A)p.r(U)p.r(G)p.r(A)p.r(A)p.r(G)p.r(C)p.r(C)p.r(U)p.r(C)p.r(G)p.r(G)p.r(A)p.d(T)p.d(G)}$$$RNA1{StrandType:ss}|RNA2{StrandType:as}$” showed a normalised inhibition (eCFP-eYFP dual reporter) of 29.2%.

“RNA1{r(A)p.r(U)p.r(C)p.r(A)p.r(U)p.r(C)p.r(A)p.r(U)p.r(C)p.r(A)p.r(C)p.r(C)p.r(A)p.r(C)p.r(C)p.r(A)p.r(U)p.r(G)p.r(G)p.d(T)p.d(T)}|RNA2{r(C)p.r(C)p.r(A)p.r(U)p.r(G)p.r(G)p.r(U)p.r(G)p.r(G)p.r(U)p.r(G)p.r(A)p.r(U)p.r(G)p.r(A)p.r(U)p.r(G)p.r(A)p.r(U)p.d(G)p.d(G)}$$$RNA1{StrandType:ss}|RNA2{StrandType:as}$” had a normalised inhibition (eCFP-eYFP dual reporter) of 59.5%.

In turn, “RNA1{r(C)p.r(C)p.r(U)p.r(C)p.r(U)p.r(U)p.r(C)p.r(A)p.r(U)p.r(C)p.r(A)p.r(A)p.r(U)p.r(G)p.r(G)p.r(A)p.r(A)p.r(U)p.r(C)p.d(T)p.d(T)}|RNA2{r(G)p.r(A)p.r(U)p.r(U)p.r(C)p.r(C)p.r(A)p.r(U)p.r(U)p.r(G)p.r(A)p.r(U)p.r(G)p.r(A)p.r(A)p.r(G)p.r(A)p.r(G)p.r(G)p.d(G)p.d(T)}$$$RNA1{StrandType:ss}|RNA2{StrandType:as}$” registered a normalised inhibition (eCFP-eYFP dual reporter) of 73.9%.

In turn, “RNA1{r(C)p.r(U)p.r(G)p.r(G)p.r(U)p.r(C)p.r(A)p.r(U)p.r(C)p.r(A)p.r(C)p.r(C)p.r(A)p.r(U)p.r(C)p.r(G)p.r(U)p.r(C)p.r(A)p.d(T)p.d(T)}|RNA2{r(U)p.r(G)p.r(A)p.r(C)p.r(G)p.r(A)p.r(U)p.r(G)p.r(G)p.r(U)p.r(G)p.r(A)p.r(U)p.r(G)p.r(A)p.r(C)p.r(C)p.r(A)p.r(G)p.d(G)p.d(A)}$$$RNA1{StrandType:ss}|RNA2{StrandType:as}$” showed a normalised inhibition (eCFP-eYFP dual reporter) of 67%.

In turn, “RNA1{r(C)p.r(U)p.r(U)p.r(C)p.r(C)p.r(U)p.r(G)p.r(U)p.r(A)p.r(U)p.r(C)p.r(U)p.r(G)p.r(C)p.r(U)p.r(G)p.r(C)p.r(U)p.r(C)p.d(T)p.d(T)}|RNA2{r(G)p.r(A)p.r(G)p.r(C)p.r(A)p.r(G)p.r(C)p.r(A)p.r(G)p.r(A)p.r(U)p.r(A)p.r(C)p.r(A)p.r(G)p.r(G)p.r(A)p.r(A)p.r(G)p.d(G)p.d(C)}$$$RNA1{StrandType:ss}|RNA2{StrandType:as}$” registered a normalised inhibition (eCFP-eYFP dual reporter) of 75.8%.

On to “RNA1{r(C)p.r(U)p.r(C)p.r(U)p.r(C)p.r(C)p.r(G)p.r(U)p.r(A)p.r(G)p.r(G)p.r(C)p.r(A)p.r(U)p.r(C)p.r(G)p.r(U)p.r(G)p.r(C)p.d(T)p.d(T)}|RNA2{r(G)p.r(C)p.r(A)p.r(C)p.r(G)p.r(A)p.r(U)p.r(G)p.r(C)p.r(C)p.r(U)p.r(A)p.r(C)p.r(G)p.r(G)p.r(A)p.r(G)p.r(A)p.r(G)p.d(G)p.d(A)}$$$RNA1{StrandType:ss}|RNA2{StrandType:as}$”, for which the normalised inhibition (eCFP-eYFP dual reporter) amounted to 75.8%.

Regarding “RNA1{r(G)p.r(G)p.r(G)p.r(A)p.r(U)p.r(G)p.r(G)p.r(G)p.r(G)p.r(C)p.r(U)p.r(C)p.r(C)p.r(U)p.r(G)p.r(G)p.r(G)p.r(A)p.r(G)p.d(T)p.d(T)}|RNA2{r(C)p.r(U)p.r(C)p.r(C)p.r(C)p.r(A)p.r(G)p.r(G)p.r(A)p.r(G)p.r(C)p.r(C)p.r(C)p.r(C)p.r(A)p.r(U)p.r(C)p.r(C)p.r(C)p.d(C)p.d(A)}$$$RNA1{StrandType:ss}|RNA2{StrandType:as}$”, the normalised inhibition (eCFP-eYFP dual reporter) came out at 43.3%.

Substance “RNA1{r(C)p.r(C)p.r(C)p.r(A)p.r(U)p.r(C)p.r(A)p.r(U)p.r(C)p.r(A)p.r(C)p.r(C)p.r(C)p.r(A)p.r(G)p.r(U)p.r(U)p.r(C)p.r(U)p.d(T)p.d(T)}|RNA2{r(A)p.r(G)p.r(A)p.r(A)p.r(C)p.r(U)p.r(G)p.r(G)p.r(G)p.r(U)p.r(G)p.r(A)p.r(U)p.r(G)p.r(A)p.r(U)p.r(G)p.r(G)p.r(G)p.d(G)p.d(T)}$$$RNA1{StrandType:ss}|RNA2{StrandType:as}$” gave a normalised inhibition (eCFP-eYFP dual reporter) of 68.7%.

Consider “RNA1{r(A)p.r(C)p.r(U)p.r(U)p.r(G)p.r(A)p.r(A)p.r(A)p.r(U)p.r(C)p.r(A)p.r(G)p.r(G)p.r(G)p.r(A)p.r(A)p.r(C)p.r(A)p.r(A)p.d(T)p.d(T)}|RNA2{r(U)p.r(U)p.r(G)p.r(U)p.r(U)p.r(C)p.r(C)p.r(C)p.r(U)p.r(G)p.r(A)p.r(U)p.r(U)p.r(U)p.r(C)p.r(A)p.r(A)p.r(G)p.r(U)p.d(T)p.d(G)}$$$RNA1{StrandType:ss}|RNA2{StrandType:as}$”, for which the normalised inhibition (eCFP-eYFP dual reporter) was 34.4%.

For “RNA1{r(G)p.r(U)p.r(A)p.r(U)p.r(C)p.r(U)p.r(G)p.r(C)p.r(U)p.r(G)p.r(C)p.r(U)p.r(C)p.r(A)p.r(C)p.r(C)p.r(G)p.r(U)p.r(C)p.d(T)p.d(T)}|RNA2{r(G)p.r(A)p.r(C)p.r(G)p.r(G)p.r(U)p.r(G)p.r(A)p.r(G)p.r(C)p.r(A)p.r(G)p.r(C)p.r(A)p.r(G)p.r(A)p.r(U)p.r(A)p.r(C)p.d(A)p.d(G)}$$$RNA1{StrandType:ss}|RNA2{StrandType:as}$”, the normalised inhibition (eCFP-eYFP dual reporter) is 65.4%.

In the case of “RNA1{r(U)p.r(C)p.r(A)p.r(C)p.r(C)p.r(A)p.r(C)p.r(C)p.r(A)p.r(U)p.r(G)p.r(G)p.r(A)p.r(C)p.r(A)p.r(A)p.r(G)p.r(U)p.r(U)p.d(T)p.d(T)}|RNA2{r(A)p.r(A)p.r(C)p.r(U)p.r(U)p.r(G)p.r(U)p.r(C)p.r(C)p.r(A)p.r(U)p.r(G)p.r(G)p.r(U)p.r(G)p.r(G)p.r(U)p.r(G)p.r(A)p.d(T)p.d(G)}$$$RNA1{StrandType:ss}|RNA2{StrandType:as}$”, the normalised inhibition (eCFP-eYFP dual reporter) was found to be 67.7%.

Values taken from the OligoGym collection.
